row,melting point,Structure (SMILES)
1,169 °C,"N#CCC(=O)N[C@H]1CC[C@H](CCN2CCN(c3ccccc3Oc3ccccc3)CC2)CC1 [Example 245, 2-Cyano-N-(4-{2-[4-(2-phenoxyphenyl)piperazin-1-yl]ethyl}cyclohexyl)acetamide]"
2,232 to 233 °C,"N#CCC(=O)N[C@H]1CC[C@H](CCN2CCN(c3cccc(Cl)c3C#N)CC2)CC1 [Example 246, N-(4-{2-[4-(3-Chloro-2-cyanophenyl)piperazin-1-yl]ethyl}cyclohexyl)-2-cyanoacetamide]"
3,142 to 143 °C,"CCc1ccccc1N1CCN(CC[C@H]2CC[C@H](NC(=O)CC#N)CC2)CC1 [Example 247, 2-Cyano-N-(4-{2-[4-(2-ethylphenyl)piperazin-1-yl]ethyl}cyclohexyl)acetamide]"
4,152 to 153 °C,"Cc1ccc(Cl)cc1N1CCN(CC[C@H]2CC[C@H](NC(=O)CCCC#N)CC2)CC1 [Example 248, N-(4-{2-[4-(5-Chloro-2-methylphenyl)piperazin-1-yl]ethyl}cyclohexyl)-4-cyanobutanamide]"
5,169 °C,"Cc1cc(C)cc(N2CCN(CC[C@H]3CC[C@H](NC(=O)CCCC#N)CC3)CC2)c1 [Example 249, 4-Cyano-N-(4-{2-[4-(3,5-dimethylphenyl)piperazin-1-yl]ethyl}cyclohexyl)butanamide]"
6,154 °C,"CCc1cccc(N2CCN(CC[C@H]3CC[C@H](NC(=O)CC(F)(F)F)CC3)CC2)c1 [Example 250, N-(4-{2-[4-(3-Ethylphenyl)-piperazin-1-yl]ethyl}cyclohexyl)-3,3,3-trifluoropropanamide]"
7,143 °C,"CCc1cccc(N2CCN(CC[C@H]3CC[C@H](NC(=O)CCC#N)CC3)CC2)c1 [Example 251, 3-Cyano-N-(4-{2-[4-(3-ethylphenyl)piperazin-1-yl]ethyl}cyclohexyl)propanamide]"
8,169 °C,"N#CCCCC(=O)N[C@H]1CC[C@H](CCN2CCN(c3csc4cc(C(F)(F)F)ccc34)CC2)CC1 [Example 253, 4-Cyano-N-(4-{2-[4-(6-trifluoromethylbenzo[b]thiophen-3-yl)piperazin-1-yl]ethyl}cyclohexyl)butanamide]"
9,165 °C,"N#CCCCC(=O)N[C@H]1CC[C@H](CCN2CCN(c3cc(F)cc(F)c3)CC2)CC1 [Example 254, 4-Cyano-N-(4-{2-[4-(3,5-difluorophenyl)piperazin-1-yl]ethyl}cyclohexyl)butanamide]"
10,183 °C,"CCc1ccc(N2CCN(CC[C@H]3CC[C@H](NC(=O)CC#N)CC3)CC2)c(CC)c1 [Example 255, 2-Cyano-N-(4-{2-[4-(2,4-diethylphenyl)piperazin-1-yl]ethyl}cyclohexyl)acetamide]"
11,198 °C,"O=C(CC(F)(F)F)N[C@H]1CC[C@H](CCN2CCN(c3cccc(C(F)(F)F)c3F)CC2)CC1 [Example 256, 3,3,3-Trifluoro-N-(4-{2-[4-(2-fluoro-3-trifluoromethylphenyl)-piperazin-1-yl]ethyl}cyclohexyl)-propanamide]"
12,133 to 134 °C,"Cc1ccc(Cl)cc1N1CCN(CC[C@H]2CC[C@H](NC(=O)CCC#N)CC2)CC1 [Example 257, N-(4-{2-[4-(5-Chloro-2-methylphenyl)piperazin-1-yl]ethyl}cyclohexyl)-3-cyanopropanamide]"
13,180 to 183 °C,"Cc1c(Cl)cccc1N1CCN(CC[C@H]2CC[C@H](NC(=O)CCCC#N)CC2)CC1 [Example 258, N-(4-{2-[4-(3-Chloro-2-methylphenyl)piperazin-1-yl]ethyl}cyclohexyl)-4-cyanobutanamide]"
14,158 to 159 °C,"N#CCCCC(=O)N[C@H]1CC[C@H](CCN2CCN(c3cc(F)cc(Cl)c3)CC2)CC1 [Example 259, N-(4-{2-[4-(3-Chloro-5-fluorophenyl)piperazin-1-yl]ethyl}cyclohexyl)-4-cyanobutanamide]"
15,142 °C,"COCC(=O)N[C@H]1CC[C@H](CCN2CCN(c3cccc(C(F)(F)F)c3F)CC2)CC1 [Example 260, N-(4-{2-[4-(2-Fluoro-3-trifluoromethylphenyl)piperazin-1-yl]ethyl}cyclohexyl)-2-methoxyacetamide]"
16,179 °C,"N#CCCCC(=O)N[C@H]1CC[C@H](CCN2CCN(c3cc(Cl)cc(Cl)c3)CC2)CC1 [Example 261, 4-Cyano-N-(4-{2-[4-(3,5-dichlorophenyl)piperazin-1-yl]ethyl}cyclohexyl)butanamide trans/cis 98/2]"
17,180 °C,"N#CCCCC(=O)N[C@H]1CC[C@H](CCN2CCN(c3cccc4cccnc34)CC2)CC1 [Example 262, 4-Cyano-N-{4-[2-(4-quinolin-8-ylpiperazin-1-yl)ethyl]cyclohexyl}butanamide]"
18,110 °C,"CC(=O)CN1CCC(CCN2CCN(c3ccc4scnc4c3)CC2)CC1 [Example 264, 1-{4-[2-(4-Benzothiazol-5-ylpiperazin-1-yl)ethyl]piperidin-1-yl}propan-2-one]"
19,152 °C,"O=C(CCC(F)(F)F)N[C@H]1CC[C@H](CCN2CCN(c3cccc(C(F)(F)F)c3)CC2)CC1 [Example 265, 4,4,4-Trifluoro-N-(4-{2-[4-(3-trifluoromethylphenyl)piperazin-1-yl]ethyl}cyclohexyl)butanamide]"
20,164 °C,"N#CCCC(=O)N[C@H]1CC[C@H](CCN2CCN(c3ccccc3F)CC2)CC1 [Example 266, 3-Cyano-N-(4-{2-[4-(2-fluorophenyl)piperazin-1-yl]ethyl}cyclohexyl)propanamide]"
21,143 °C,"Cc1cccc(C)c1N1CCN(CC[C@H]2CC[C@H](NC(=O)CC#N)CC2)CC1 [Example 267, 2-Cyano-N-(4-{2-[4-(2,6-dimethylphenyl)piperazin-1-yl]ethyl}cyclohexyl)acetamide]"
22,180 °C,"N#CCC(=O)N[C@H]1CC[C@H](CCN2CCN(c3cccc(CO)c3)CC2)CC1 [Example 268, 2-Cyano-N-(4-{2-[4-(3-hydroxymethylphenyl)piperazin-1-yl]ethyl}cyclohexyl)acetamide]"
23,98 °C,"CSc1cccc(N2CCN(CC[C@H]3CC[C@H](NC(=O)CCC#N)CC3)CC2)c1 [Example 269, 3-Cyano-N-(4-{2-[4-(3-methylsulfanylphenyl)piperazin-1-yl]ethyl}cyclohexyl)-propanamide]"
24,117 °C,"COCc1cccc(N2CCN(CC[C@H]3CC[C@H](NC(=O)CC#N)CC3)CC2)c1 [Example 270, 2-Cyano-N-(4-{2-[4-(3-methoxymethylphenyl)piperazin-1-yl]ethyl}cyclohexyl)acetamide]"
25,132 °C,"CCCc1cccc(N2CCN(CC[C@H]3CC[C@H](NC(=O)CC#N)CC3)CC2)c1 [Example 271, 2-Cyano-N-(4-{2-[4-(3-propylphenyl)piperazin-1-yl]ethyl}cyclohexyl)acetamide]"
26,216 °C,"N#CCC(=O)N[C@H]1CC[C@H](CCN2CCN(c3ccc(Cl)c(Cl)c3)CC2)CC1 [Example 272, 2-Cyano-N-(4-{2-[4-(3,4-dichlorophenyl)piperazin-1-yl]ethyl}cyclohexyl)acetamide]"
27,240 °C,"N#CCC(=O)N[C@H]1CC[C@H](CCN2CCN(c3ccc(C(F)(F)F)cc3)CC2)CC1 [Example 274, 2-Cyano-N-(4-{2-[4-(4-trifluoromethylphenyl)piperazin-1-yl]ethyl}cyclohexyl)acetamide]"
